What was measured:
[1] = molecular target: Sodium-dependent serotonin transporter (Homo sapiens, UniProt P31645); assay type: cell-based, JAR
Description: Inhibition of human SERT expressed in JAR cells

Homo sapiens = species: Homo sapiens; experiment: Selectivity ratio, IC50 for human SERT to IC50 for human NET
[2] = molecular target: Sodium-dependent dopamine transporter (Homo sapiens) (UniProt Q01959); experiment: Displacement of [3H]WIN-35428 from human DAT expressed in CHO cells; assay type: cell-based; conditions: concentration not given here
[3] = molecular target: Sodium-dependent noradrenaline transporter (Homo sapiens, UniProt P23975)
Description: Inhibition of human NET expressed in MDCK-Net6 cells

[4] = Oral bioavailability in rat at 10 mg/kg; assay type: ADME, organism-based; conditions: in vivo
[5] = Ratio of AUC in brain to AUC in plasma in rat at 10 mg/kg, po and 2 mg/kg, iv; assay type: ADME, organism-based; conditions: read-out: Ratio AUC
[6] = Cmax in rat at 10 mg/kg, po after 8 hrs; assay type: ADME, organism-based; parameters: dose 10 mg/kg, route oral; conditions: in vivo
[7] = Plasma concentration in rat at 10 mg/kg, po after 8 hrs; assay type: ADME, organism-based; parameters: dose 10 mg/kg, route oral
Rattus norvegicus [8] = experiment: Effect on temperature homeostasis in ovariectomized-induced thermoregulatory dysfunction in telemetric Sprague-Dawley rat model assessed as duration of tail skin temperature reduction at 10 mg/kg, po; assay type: functional
Rattus norvegicus [9] = experiment: Effect on temperature homeostasis in ovariectomized-induced thermoregulatory dysfunction telemetric Sprague-Dawley rat model assessed as mean reduction in tail skin temperature at 10 mg/kg, po; assay type: functional
Rattus norvegicus [10] = experiment: Effect on temperature homeostasis in ovariectomized-induced thermoregulatory dysfunction telemetric Sprague-Dawley rat model assessed as maximum reduction in tail skin temperature at 10 mg/kg, po; assay type: functional
Rattus norvegicus [11] = experiment: Effect on temperature homeostasis in ovariectomized-induced thermoregulatory dysfunction telemetric Sprague-Dawley rat model assessed as duration of tail skin temperature reduction at 30 mg/kg, po; assay type: functional
Rattus norvegicus [12] = experiment: Effect on temperature homeostasis in ovariectomized-induced thermoregulatory dysfunction telemetric Sprague-Dawley rat model assessed as mean reduction in tail skin temperature at 30 mg/kg, po; assay type: functional
Rattus norvegicus [13] = experiment: Effect on temperature homeostasis in ovariectomized-induced thermoregulatory dysfunction telemetric Sprague-Dawley rat model assessed as maximum reduction in tail skin temperature at 30 mg/kg, po; assay type: functional
Rattus norvegicus [14] = experiment: Effect on temperature homeostasis in ovariectomized-induced thermoregulatory dysfunction in telemetric Sprague-Dawley rat model assessed as duration of onset activity in tail skin temperature reduction at 10 mg/kg, po; assay type: functional
Rattus norvegicus [15] = experiment: Effect on temperature homeostasis in ovariectomized-induced thermoregulatory dysfunction in telemetric Sprague-Dawley rat model assessed as duration of onset activity in tail skin temperature reduction at 30 mg/kg, po; assay type: functional

Sequence of Sodium-dependent serotonin transporter (P31645 whole entry): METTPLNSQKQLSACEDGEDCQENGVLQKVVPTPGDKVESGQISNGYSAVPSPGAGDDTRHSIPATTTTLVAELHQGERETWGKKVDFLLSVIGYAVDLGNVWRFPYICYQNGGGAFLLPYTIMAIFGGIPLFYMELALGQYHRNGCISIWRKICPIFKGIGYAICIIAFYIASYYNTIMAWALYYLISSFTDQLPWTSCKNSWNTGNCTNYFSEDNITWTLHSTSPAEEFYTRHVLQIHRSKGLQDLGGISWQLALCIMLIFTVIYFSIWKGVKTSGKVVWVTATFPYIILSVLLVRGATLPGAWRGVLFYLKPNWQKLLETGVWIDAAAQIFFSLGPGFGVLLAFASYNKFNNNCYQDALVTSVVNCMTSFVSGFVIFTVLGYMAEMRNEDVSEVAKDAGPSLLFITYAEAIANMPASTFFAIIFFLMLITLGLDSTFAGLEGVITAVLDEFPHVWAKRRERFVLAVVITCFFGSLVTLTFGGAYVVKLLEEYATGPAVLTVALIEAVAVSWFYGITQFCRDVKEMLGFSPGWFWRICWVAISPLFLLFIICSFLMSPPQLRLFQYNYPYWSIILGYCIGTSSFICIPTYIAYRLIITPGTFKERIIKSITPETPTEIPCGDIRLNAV
Sequence of Sodium-dependent noradrenaline transporter (P23975 whole entry): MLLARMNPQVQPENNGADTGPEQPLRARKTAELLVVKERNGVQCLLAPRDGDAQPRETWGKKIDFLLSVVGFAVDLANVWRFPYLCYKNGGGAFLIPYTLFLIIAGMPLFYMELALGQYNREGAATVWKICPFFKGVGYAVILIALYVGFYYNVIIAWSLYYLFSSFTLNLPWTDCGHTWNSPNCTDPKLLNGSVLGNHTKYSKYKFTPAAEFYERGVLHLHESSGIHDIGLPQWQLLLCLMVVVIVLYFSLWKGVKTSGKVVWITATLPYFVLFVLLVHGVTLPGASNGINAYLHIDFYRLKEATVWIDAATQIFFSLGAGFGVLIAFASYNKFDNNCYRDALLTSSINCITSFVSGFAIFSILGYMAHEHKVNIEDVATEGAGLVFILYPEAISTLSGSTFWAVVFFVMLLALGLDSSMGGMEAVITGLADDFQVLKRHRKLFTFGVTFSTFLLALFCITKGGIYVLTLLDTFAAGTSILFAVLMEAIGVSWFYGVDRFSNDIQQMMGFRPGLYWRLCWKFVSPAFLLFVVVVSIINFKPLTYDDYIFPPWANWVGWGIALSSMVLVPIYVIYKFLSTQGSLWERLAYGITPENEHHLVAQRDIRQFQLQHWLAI
Sequence of Sodium-dependent dopamine transporter (Homo sapiens) (Q01959 whole entry): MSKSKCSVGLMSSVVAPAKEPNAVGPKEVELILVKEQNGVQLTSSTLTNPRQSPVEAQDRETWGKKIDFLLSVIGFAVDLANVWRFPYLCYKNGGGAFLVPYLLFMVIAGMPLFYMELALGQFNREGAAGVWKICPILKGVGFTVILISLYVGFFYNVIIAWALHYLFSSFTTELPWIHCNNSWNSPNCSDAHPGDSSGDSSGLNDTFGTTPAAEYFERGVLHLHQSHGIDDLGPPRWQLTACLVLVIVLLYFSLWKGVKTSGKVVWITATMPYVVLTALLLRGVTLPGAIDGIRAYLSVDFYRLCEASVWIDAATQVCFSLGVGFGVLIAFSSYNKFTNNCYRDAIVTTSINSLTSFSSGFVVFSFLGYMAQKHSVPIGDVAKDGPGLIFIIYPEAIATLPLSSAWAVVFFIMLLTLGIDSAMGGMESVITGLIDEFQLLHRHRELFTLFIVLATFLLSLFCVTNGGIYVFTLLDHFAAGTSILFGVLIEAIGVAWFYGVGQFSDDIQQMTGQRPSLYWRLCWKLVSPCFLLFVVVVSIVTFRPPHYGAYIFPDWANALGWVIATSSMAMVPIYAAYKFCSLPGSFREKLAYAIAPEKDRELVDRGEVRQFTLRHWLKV

Compound	IC50 [1] [nM]	Ratio IC50 (Homo sapiens)	inhibition [2] [%]	IC50 [3] [nM]	also measured
CNC[C@@H](O)[C@H](c1cccc(F)c1)n1ccc2ccccc21	441	40	23	11	
CNC[C@@H](O)[C@H](c1ccccc1Cl)n1ccc2ccccc21	1330	4	7	304	
CNC[C@@H](O)[C@H](c1cccc(F)c1)n1ccc2cc(Cl)ccc21	79	1	6	60	
CNC[C@@H](O)[C@H](c1cccc(F)c1)n1ccc2ccc(F)cc21	626	31	15	20	
CNC[C@@H](O)[C@H](c1cccc(C(F)(F)F)c1)n1ccc2ccccc21	2180	40	14	54	
CNC[C@@H](O)[C@H](c1cccc(F)c1)n1ccc2c(F)cccc21	417	26	3	16	
CNC[C@@H](O)[C@H](c1cccc(F)c1)n1ccc2cc(Br)ccc21	52	1	10	60	
CNC[C@@H](O)[C@H](c1cccc(F)c1)n1ccc2cc(F)ccc21	78	4	9	22	
CNCC[C@H](c1ccccc1)n1ccc2ccccc21	491	14	44	34	
CNC[C@@H](O)[C@H](c1cccc(F)c1)n1ccc2cccc(C)c21	527	29	7	18	
CNC[C@@H](O)[C@H](c1ccccc1F)n1ccc2ccccc21	473	5	4	92	
CNC[C@@H](O)[C@H](c1cccc(F)c1)n1ccc2c(C)cccc21	228	15	4	15	
CNC[C@@H](O)[C@H](c1cccc(F)c1)n1ccc2cccc(Br)c21	113	5	0	21	
CCc1cn([C@@H](c2cccc(F)c2)[C@H](O)CNC)c2ccccc12	834	83	0	10	
CNC[C@@H](O)[C@H](c1ccc(Cl)cc1)n1ccc2ccccc21	748	1	16	527	
CNC[C@@H](O)[C@H](c1cccc(OC)c1)n1ccc2ccccc21	882	8	0	111	

Compound	IC50 [1] [nM]	Ratio IC50 (Homo sapiens)	inhibition [2] [%]	IC50 [3] [nM]	also measured
CNC[C@@H](O)[C@H](c1ccc(C)cc1)n1ccc2ccccc21	398	3	0	117	
CNC[C@@H](O)[C@H](c1ccccc1C)n1ccc2ccccc21	266	1	11	232	
CNC[C@@H](O)[C@H](c1cccc(F)c1)n1ccc2c(Cl)cccc21	221	3	12	64	
CNC[C@@H](O)[C@H](c1cccc(C)c1)n1ccc2ccccc21	377	8	8	49	
CNCC[C@H](c1cccc(F)c1)n1ccc2ccccc21	14	0.2	52	91	
CNC[C@@H](O)[C@H](c1cccc(F)c1)n1ccc2cccc(Cl)c21	48	2	0	21	
CNC[C@@H](O)[C@H](c1cccc(F)c1)n1ccc2cccc(F)c21	175	25	8	7	
CNC[C@@H](O)[C@H](c1ccc(F)cc1)n1ccc2ccccc21	1370	16	11	84	
CNC[C@@H](O)[C@H](c1cccc(F)c1)n1ccc2ccc(Br)cc21	1000	8	12	124	
CNC[C@@H](O)[C@H](c1cccc(Cl)c1)n1ccc2ccccc21	554	34	20	16	
CNC[C@@H](O)[C@H](c1cccc(F)c1)n1cc(C)c2ccccc21	343	86	8	4	bioavailability [4]: 6%; Kp [5]: 3.5; Cmax [6]: 87 ng/mL; concentration at 8 h [7]: 40 nM; Time (Rattus norvegicus [8]): 5 h; Activity (Rattus norvegicus [9]): -1.5 °C; Activity (Rattus norvegicus [10]): -2.3 °C; Activity (Rattus norvegicus [11]): 10.5 h; Activity (Rattus norvegicus [12]): -3.8 °C; Activity (Rattus norvegicus [13]): -7 °C; Activity (Rattus norvegicus [14]): 1 h; Activity (Rattus norvegicus [15]): 0.5 h
CNC[C@@H](O)[C@H](c1cccc(Br)c1)n1ccc2ccccc21	547	39	13	14	
CNC[C@@H](O)[C@H](c1cccc(F)c1)n1ccc2ccc(Cl)cc21	865	9	9	92	
CNC[C@@H](O)[C@H](c1cccc(F)c1)n1ccc2cc(C)ccc21	48	2	0	21	
CNC[C@@H](O)[C@H](c1cccc(F)c1)n1ccc2c(Br)cccc21	207	4	24	52	

Reference: ChEMBL document CHEMBL1155200, “Structure-activity relationships of the 1-amino-3-(1H-indol-1-yl)-3-phenylpropan-2-ol series of monoamine reuptake inhibitors” (Bioorg Med Chem Lett, 2009)
